Data as given in PubChem BioAssay (NCI).
Where “and” joins values, the source holds several entries; their conditions need not be identical. Equal entries are not always repeated.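 Compound exposure: 48 hours, 5 concentrations, 96-well plates. Here, GI50 denotes the concentration required for 50% inhibition of growth. At the TGI there is no net growth.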

Columns and labels:
Test in all cases: growth of human tumour cells (NCI), 48 h
[1] = system: HT29 colon
[2] = system: DMS 273 small cell lung
[3] = system: OVCAR-4 ovarian
[4] = system: U251 CNS
[5] = system: LXFL 529 NSCLC
[6] = system: CAKI-1 renal
[7] = system: IGROV1 ovarian
[8] = system: RPMI-8226 leukemia
[9] = system: MOLT-4 leukemia
[10] = system: SK-MEL-2 melanoma

| SMILES | TGI [1] | TGI [2] [µM] | TGI [3] | TGI [4] [µM] | TGI [5] [µM] | TGI [6] [µM] | TGI [7] | TGI [8] | TGI [9] [µM] | TGI [10] | GI50 [1] [µM] | GI50 [2] [µM] | GI50 [3] | GI50 [4] | GI50 [5] [µM] | GI50 [7] | GI50 [8] [µM] | GI50 [9] [µM] | GI50 [10] | GI50 [6] |
| --- | --- | --- | --- | --- | --- | --- | --- | --- | --- | --- | --- | --- | --- | --- | --- | --- | --- | --- | --- | --- |
| CC(C)(O)[C@@H]1CC[C@@]2(C)CCCC(O)C2(O)C1 (some centres undefined) | > 100 µM | > 100 | > 100 µM | > 100 | > 100 | > 100 | > 100 µM | > 100 µM | > 100 | > 100 µM |  |  |  |  |  |  |  |  |  |  |
| COC(=O)C(Cc1cc(OC)c(OC)c(OC)c1)C(=O)OC | > 320 µM | > 320 |  | > 320 | > 320 | > 320 | > 320 µM | > 320 µM | > 320 | > 320 µM |  |  |  |  |  |  |  |  |  |  |
| COc1ccc(NC(=O)C(=O)c2c(O)c3ccc(O)cc3oc2=O)c([N+](=O)[O-])c1 | > 100 µM | > 100 | > 100 µM |  | > 100 | > 100 | > 100 µM |  | > 100 | > 100 µM |  |  |  |  |  |  |  |  |  |  |
| N#CCCN(c1ccc(C=Nc2ccccc2)cc1)S(=O)(=O)c1ccccc1 | > 100 µM | > 100 | > 100 µM |  | > 100 | > 100 | > 100 µM | > 100 µM | > 100 | > 100 µM |  |  |  |  |  |  |  |  |  |  |
| O=C(N/C(=C\c1ccc(Cl)cc1)c1nc2ccccc2[nH]1)c1ccccc1 | 81.3 µM | 42.9 | 37.9 µM | 53.1 | 38.6 | 54.5 | 60 µM | 42.6 µM | 43.2 | 42.2 µM |  |  |  |  |  |  |  |  |  |  |
| Cc1c(Cl)cccc1NC(=O)C(=O)C(C(=O)c1ccccc1-c1ccccc1)C1OC(=O)c2ccccc21 (centres undefined) | > 100 µM | 77 |  | 29.2 | 27.9 |  | > 100 µM | 59.1 µM | 57.8 | 32.6 µM |  |  |  |  |  |  |  |  |  |  |
| COC(=O)C(C(=O)C(=O)Nc1c(C)cccc1C)c1cnc2ccccc2n1 (centres undefined) | > 100 µM | > 100 | > 100 µM | > 100 | > 100 | > 100 | > 100 µM | > 100 µM | > 100 | > 100 µM |  |  |  |  |  |  |  |  |  |  |
| N.N.N.N.N.[Co+3].[I-].[N-]=[N+]=[N-] | > 100 µM | > 100 | > 100 µM | > 100 | > 100 |  | > 100 µM | > 100 µM | > 100 | > 100 µM | > 100 | > 100 | > 100 µM | > 100 µM | > 100 | > 100 µM | 35.5 | 5.41 | > 100 µM |  |
| COc1ccc(C2=C(Cl)c3cc(OC)c(OC)cc3C2OC)cc1OC (centres undefined) | > 100 µM | > 100 | > 100 µM |  | > 100 | > 100 | > 100 µM | > 100 µM | > 100 | > 100 µM |  |  |  |  |  |  |  |  |  |  |
| COc1cc2c(cc1OC)[C@@H](Nc1ccc(C#N)cc1)C1COC(=O)[C@@H]1C2c1cc(OC)c(O)c(OC)c1 (some centres undefined) | 23.2 µM and > 100 µM | 1.9 | 75.1 µM and > 100 µM |  | 95 |  | 95 µM and > 100 µM | 0.225 µM and 0.65 µM |  | 23 µM and 5.86 µM |  |  | 19.1 µM and 26.8 µM | 0.0457 µM and 0.178 µM |  | 7.06 µM and 5.07 µM |  |  | 3.7 µM and 1.49 µM | 0.223 µM and 0.166 µM |
| O=C1C2Nc3ccccc3SC2C(=O)N1c1ccc(Br)cc1 (centres undefined) | > 100 µM | > 100 | 74.2 µM |  | 82.1 |  | > 100 µM | > 100 µM | > 100 | > 100 µM |  |  |  |  |  |  |  |  |  |  |
| C/C(=C1/N=C(c2cc([N+](=O)[O-])ccc2Cl)N(c2cccc(C)c2)C1=O)c1cc2ccccc2oc1=O | > 100 µM | > 100 |  |  | > 100 | > 100 | > 100 µM | 72 µM | > 100 | > 100 µM |  |  |  |  |  |  |  |  |  |  |
| COc1ccc(C/C(=N/O)C(=O)NCCc2cc(Br)c(OCCCN(C)C)c(Br)c2)cc1Br | 19.1 µM | 7.61 | 38.8 µM | 32.8 | 29.7 | 69.4 |  |  |  | 37.4 µM |  |  |  |  |  |  |  |  |  |  |
| Cc1ccc(S(=O)(=O)OCCn2cnc3nc(NC(=O)c4ccccc4)[nH]c(=O)c32)cc1 | > 100 µM | > 100 | > 100 µM | > 100 | > 100 | > 100 | > 100 µM | > 100 µM |  | > 100 µM |  |  |  |  |  |  |  |  |  |  |
| COC(=O)CC(NC(=O)OCc1ccccc1)C(C(C)=O)C(=O)OCc1ccccc1 (centres undefined) |  | > 31.6 |  | > 31.6 | > 31.6 | > 31.6 | > 31.6 µM | > 31.6 µM | > 31.6 |  |  |  |  |  |  |  |  |  |  |  |
| COC(=O)C1CCc2c1c(=O)n1c([nH]c3ccccc31)c2C#N (centres undefined) | > 100 µM | > 100 | > 100 µM | > 100 | > 100 | > 100 | > 100 µM | > 100 µM |  | > 100 µM |  |  |  |  |  |  |  |  |  |  |
| Fc1cccc(COc2ccc(Nc3ncnc4sc(-c5cccs5)cc34)cc2Cl)c1 | 17.9 µM |  | 8.66 µM | 15.9 |  | > 25 | > 25 µM | > 25 µM | > 25 | 8.83 µM | 6.93 |  | 2.06 µM | 5.75 µM |  | 8.73 µM | > 25 | > 25 | 2.46 µM | > 9.71 µM |
| CCN1C/C(=C\c2cc(OC)c(OC)cc2OC)C(=O)/C(=C/c2cc(OC)c(OC)cc2OC)C1 | 5.69 µM |  | > 100 µM | 14.3 |  | 6.82 | 11.2 µM | 6.78 µM | 81.6 | 7.87 µM | 2.63 |  | 3.73 µM | 3.08 µM |  | 3.06 µM | 2.35 | 4.1 | 2.29 µM | 2.98 µM |
| OCCN1CCN(CCCN2c3ccccc3Sc3ccc(Cl)cc32)CC1 | 3.42 µM |  | 17.4 µM | 4.33 |  | 4.52 | 12.2 µM | 6.7 µM | 5.79 | 4.04 µM | 1.73 |  | 4.49 µM | 1.9 µM |  | 3.12 µM | 2.29 | 2.4 | 2.03 µM | 1.71 µM |
